Literature values as cited in patent US7687487B2, “Camptothecin-analog with a novel, “flipped” lactone-stable, E-ring and methods for making and using same” (BioNumerik Pharmaceuticals, Inc., priority 2007, dated 2010).
Entries after “also recorded” stand apart in the source; their conditions may differ. Read-outs that look alike come from different tables or passages of the source.

Columns and labels:
[1] = 24 hours after administration, once daily for 5 days, 6.5-20 mg/m^2/day
[2] = not given; remark: listed apart in the source
[3] = system: advanced malignant melanoma; details: fifteen patients
gastrointestinal cancer = details: after 2 months (8 or 9 weeks)
[4] = for Toxicity: et al, * Dose Limiting Toxicity
tumors by Tumor Type = details: et al
[5] = versus lactone form

For CC[C@@]1(O)C(=O)OCc2c1cc1n(c2=O)Cc2cc3ccccc3nc2-1 [CPT sodium], the “Cystitis (% of 27 Patients)” value (5-Day Course, P < 0.05) is given as 48 (P < 0.05) %, the “Cystitis (% of 34 Patients)” value (Single Dose method of administration) is given as 24% and the persistence of diarrhea (higher doses) is given as at most 4 weeks. For the same molecule, the “onset of cystitis after treatment” value (in vivo) was 7 to 10 days, the “relation of plasma CPT levels to dose” value [1] was “little relation to the dose given” and the bladder toxicity ([2]; doses of 20 to 30 mg/m^2) was “dose limiting in three patients”. For the same molecule, the “most prominent non-hematologic toxic effect” value ([2]; fifteen patients, 20-67 mg/m^2 weekly, intravenous push) was “Cystitis”, the “50% or greater decrease in tumor diameter” value ([3]; 90-360 mg/m^2 every 2 weeks) was “None of the patients” and the myelosuppression ([3]; 90-360 mg/m^2 every 2 weeks) was 11 patients. For the same molecule, the “less pronounced transient tumor regression” value ([3]; no clinical benefit associated) was “three patients” and the “patients with partial objective improvement” value (gastrointestinal cancer) was “only two of their 61 patients”.

For CCc1c2c(nc3ccc(OC(=O)N4CCC(N5CCCCC5)CC4)cc13)-c1cc3c(c(=O)n1C2)COC(=O)[C@]3(O)CC [CPT-11, 7-ethyl-10-[4-(1-piperidino)-1-piperidino]carbonyloxy camptothecin], the Toxicity ([4]; Clavel, 90 min. QDx 3 Q21 Days, 37 Pts., 115 mg/m^2/d (33-115)) is given as “neutropenia*; also recorded: diarrhea,; also recorded: vomiting,”, the Toxicity ([4]; Ohe, 120 hr CI Q3 wks, 36 Pts., 40 mg/m^2/d (5-40)) is given as “diarrhea*; also recorded: vomiting,; also recorded: thrombocytopenia; also recorded: Anemia; also recorded: liver” and the “major reported dose-limiting toxicities” value ([4]; Phase I clinical trials summarised in Table VII) is given as “Neutropenia and diarrhea”. The “Tumor Type: Breast, responses” value (tumors by Tumor Type; Clavel, 37 Pts.) was “(1 PR)”, the “Tumor Type: Mesothelioma, responses” value (tumors by Tumor Type; Clavel, 37 Pts.) was “(1 PR)” and the “Tumor Type: Esophagus, responses” value (tumors by Tumor Type; Culine, 59 Pts.) was “(1 PR) cervix”. For the same molecule, the “Tumor Type: Ovarian, responses” value (tumors by Tumor Type; Culine, 59 Pts.) was “(1 PR)”, the “Tumor Type: cervix, responses” value (tumors by Tumor Type; Culine, 59 Pts.) was “(1 PR) renal” and the “Tumor Type: renal, responses” value (tumors by Tumor Type; Culine, 59 Pts.) was “(1 PR)”. The “Tumor Type: NS CLC, responses” value (tumors by Tumor Type; Negoro, 17 Pts.) was “(2 PRs)”, the “Tumor Type with responses” value (tumors by Tumor Type; Ohe, 36 Pts.) was “None” and the “Tumor Type: Colon Ca, responses” value (tumors by Tumor Type; Rothenberg, 32 Pts.) was “(2 PRs)”. For the same molecule, the “Tumor Type: Cervix Ca, responses” value (tumors by Tumor Type; Rowinsky, 32 Pts.) was “(1 PR)” and the “Tumor Type: Colon Cancer, responses” value (tumors by Tumor Type; Rowinsky, 32 Pts.) was “(1 PR)”.

For CC[C@@](O)(C(=O)O)c1cc2n(c(=O)c1CO)Cc1cc3ccccc3nc1-2 [carboxylate form of CPT], the “reduction of anti-tumor activity” value [5] is listed as “at least 10 fold”.
